Laboratory results as given in ChEMBL document CHEMBL1142793, “Lead optimization of 4-(dimethylamino)quinazolines, potent and selective antagonists for the melanin-concentrating hormone receptor 1” (Bioorg Med Chem Lett, 2005).

Columns and labels:
Homo sapiens = species on record: Homo sapiens; assay: Selective ratio against Alpha2A adrenergic receptor to that of MCH
[1] = biological target: T1, Alpha-2A adrenergic receptor (Homo sapiens, UniProt P08913); assay: Inhibitory activity against alpha-2A adrenergic receptor by using [3H]MK-912 as radioligand expressed in COS-1 cells; type: cell-based
T1 sequence (P08913 whole entry): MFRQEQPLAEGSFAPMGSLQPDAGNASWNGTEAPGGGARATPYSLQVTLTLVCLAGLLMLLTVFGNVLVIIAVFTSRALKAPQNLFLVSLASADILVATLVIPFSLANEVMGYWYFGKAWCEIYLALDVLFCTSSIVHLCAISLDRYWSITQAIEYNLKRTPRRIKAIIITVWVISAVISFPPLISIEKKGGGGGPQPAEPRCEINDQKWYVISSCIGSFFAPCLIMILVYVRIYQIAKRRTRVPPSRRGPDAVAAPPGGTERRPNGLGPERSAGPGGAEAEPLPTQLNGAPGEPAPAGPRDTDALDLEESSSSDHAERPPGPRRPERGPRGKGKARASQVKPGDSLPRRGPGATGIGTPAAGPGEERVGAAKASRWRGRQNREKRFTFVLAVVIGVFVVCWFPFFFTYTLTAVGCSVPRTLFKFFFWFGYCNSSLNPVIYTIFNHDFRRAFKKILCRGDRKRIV

[2] = biological target: Melanin-concentrating hormone receptor 1 (Homo sapiens, UniProt Q99705); assay: Inhibitory activity against human CA-MCH-R1 (Melanin-concentrating hormone receptor 1) by using [125I](Phe13,Tyr19)MCH as radioligand expressed in HEK293 cells; type: cell-based
[3] = biological target: T2, Neuropeptide Y receptor type 5 (Homo sapiens, UniProt Q15761); assay: Inhibitory activity against neuropeptide Y receptor type 5 by using [125I]PYY as radioligand expressed in COS-1 cells; type: cell-based
T2 sequence (Q15761 whole entry): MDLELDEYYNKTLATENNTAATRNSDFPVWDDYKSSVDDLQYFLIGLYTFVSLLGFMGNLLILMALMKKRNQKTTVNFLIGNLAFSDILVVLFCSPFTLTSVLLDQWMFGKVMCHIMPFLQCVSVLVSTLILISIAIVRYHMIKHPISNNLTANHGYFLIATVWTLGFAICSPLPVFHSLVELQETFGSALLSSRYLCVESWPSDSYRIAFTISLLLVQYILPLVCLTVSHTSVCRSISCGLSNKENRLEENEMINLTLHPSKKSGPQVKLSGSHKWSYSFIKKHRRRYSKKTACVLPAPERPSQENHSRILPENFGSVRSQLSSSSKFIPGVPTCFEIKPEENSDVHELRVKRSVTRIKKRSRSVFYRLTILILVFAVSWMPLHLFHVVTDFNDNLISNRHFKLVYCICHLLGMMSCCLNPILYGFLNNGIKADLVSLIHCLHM

Sequence of Melanin-concentrating hormone receptor 1 (Q99705 whole entry): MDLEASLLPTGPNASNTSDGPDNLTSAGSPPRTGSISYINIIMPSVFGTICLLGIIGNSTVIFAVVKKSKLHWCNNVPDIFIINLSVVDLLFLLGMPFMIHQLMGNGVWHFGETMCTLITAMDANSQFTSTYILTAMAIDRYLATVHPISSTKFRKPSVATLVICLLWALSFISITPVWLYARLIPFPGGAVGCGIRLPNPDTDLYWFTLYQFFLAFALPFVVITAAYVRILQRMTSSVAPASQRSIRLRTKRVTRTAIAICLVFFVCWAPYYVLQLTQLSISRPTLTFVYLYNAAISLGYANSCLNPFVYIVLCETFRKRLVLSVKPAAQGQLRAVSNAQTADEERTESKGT

| Selectivity (Homo sapiens) | IC50 [1] [nM] | IC50 [2] [nM] | IC50 [3] [nM] | SMILES |
| --- | --- | --- | --- | --- |
| 24 | 110 | 4.6 | – | Cc1cccc(C(=O)N[C@H]2CC[C@@H](Nc3nc(N(C)C)c4ccccc4n3)CC2)c1 |
| 4 | 60 | 15 | – | CN(C)c1nc(N[C@H]2CC[C@@H](NC(=O)c3cccc(C(F)(F)F)c3)CC2)nc2ccccc12 |
| 9.4 | 47 | 5 | – | CN(C)c1nc(N[C@H]2CC[C@@H](NC(=O)c3ccc(Cl)c(Cl)c3)CC2)nc2ccccc12 |
| 16 | 150 | 9.4 | – | CN(C)c1nc(N[C@H]2CC[C@@H](NC(=O)c3ccc(F)cc3)CC2)nc2ccccc12 |
| 14 | 130 | 9.5 | – | CN(C)c1nc(N[C@H]2CC[C@@H](NC(=O)c3cccc(F)c3)CC2)nc2ccccc12 |
| 11 | 63 | 5.9 | – | CN(C)c1nc(N[C@H]2CC[C@@H](NC(=O)c3cccc(Br)c3)CC2)nc2ccccc12 |
| – | 260 | – | 2700 | CN(C)c1nc(N[C@H]2CC[C@@H](NC(=O)c3ccc(F)c(F)c3)CC2)nc2ccccc12 |
| 15 | 150 | 10 | – | CN(C)c1nc(N[C@H]2CC[C@@H](NC(=O)c3cccc(C#N)c3)CC2)nc2ccccc12 |
| 14 | 97 | 6.8 | – | CN(C)c1nc(N[C@H]2CC[C@@H](NC(=O)c3cccc([N+](=O)[O-])c3)CC2)nc2ccccc12 |
| 17 | 76 | 4.5 | – | CN(C)c1nc(N[C@H]2CC[C@@H](NC(=O)c3cccc(Cl)c3)CC2)nc2ccccc12 |
| – | – | 170 | – | CN(C)c1nc(N[C@H]2CC[C@@H](NC(=O)c3ccccc3F)CC2)nc2ccccc12 |
| 5.3 | 200 | 38 | – | CN(C)c1nc(N[C@H]2CC[C@@H](NC(=O)c3ccc(F)c(F)c3F)CC2)nc2ccccc12 |

The next lines start with the molecule.

| SMILES | Selectivity (Homo sapiens) | IC50 [1] [nM] | IC50 [2] [nM] | IC50 [3] [nM] |
| --- | --- | --- | --- | --- |
| CN(C)c1nc(NC2CCC(NC(=O)c3ccc(Br)cc3OC(F)(F)F)CC2)nc2ccccc12 (cis isomer) | 2.4 | 390 | 160 | > 1000 |
| CN(C)c1nc(NC[C@H]2CC[C@H](CNS(=O)(=O)c3ccc(Br)cc3OC(F)(F)F)CC2)nc2ccccc12 | – | 7.7 | 160 | 2.7 |
| CN(C)c1nc(NC2CCN(C(=O)c3ccc(Br)cc3OC(F)(F)F)CC2)nc2ccccc12 | – | – | 1200 | – |
| COc1cc(OC)cc(C(=O)N[C@H]2CC[C@@H](Nc3nc(N(C)C)c4ccccc4n3)CC2)c1 | 36 | 71 | 2 | – |
| CN(C)c1nc(NCC2CCC(CN(C)S(=O)(=O)c3ccc(Br)cc3OC(F)(F)F)CC2)nc2ccccc12 (stereo unspecified) | – | 34 | 5800 | 460 |
| CN(C)c1nc(NC2CCC(CNCc3ccc(Br)cc3OC(F)(F)F)CC2)nc2ccccc12 (cis isomer) | – | 360 | 4.9 | 2400 |
| CN(Cc1ccc(Br)cc1OC(F)(F)F)CC1CCC(CNc2nc(N(C)C)c3ccccc3n2)CC1 (stereo unspecified) | – | 44 | 5600 | > 1000 |
| CN(C)c1nc(NCC2CCC(CNCc3ccc(Br)cc3OC(F)(F)F)CC2)nc2ccccc12 (stereo unspecified) | – | 31 | 960 | 560 |
| CN(C)c1nc(NCC2CCC(CNC(=O)c3ccc(Br)cc3OC(F)(F)F)CC2)nc2ccccc12 (stereo unspecified) | – | 9.9 | 1500 | 470 |
| CN(C)c1nc(N[C@H]2CC[C@@H](CNS(=O)(=O)c3ccc(Br)cc3OC(F)(F)F)CC2)nc2ccccc12 | – | 130 | 140 | 120 |
| CN(C)c1nc(N[C@H]2CC[C@@H](NS(=O)(=O)c3ccc(Br)cc3OC(F)(F)F)CC2)nc2ccccc12 | – | 57 | 83 | 880 |
| CN(C)c1nc(NC2CCN(S(=O)(=O)c3ccc(Br)cc3OC(F)(F)F)CC2)nc2ccccc12 | – | 170 | 250 | – |
| CN(C)c1nc(NC2CCN(Cc3ccc(Br)cc3OC(F)(F)F)CC2)nc2ccccc12 | – | 520 | 320 | > 1000 |
| CN(C)c1nc(NC2CCC(NCc3ccc(Br)cc3OC(F)(F)F)CC2)nc2ccccc12 (stereo unspecified) | – | 170 | 35 | > 1000 |
| CN(C)c1nc(NC2CCC(CNC(=O)c3ccc(Br)cc3OC(F)(F)F)CC2)nc2ccccc12 (cis isomer) | – | 570 | 79 | 1800 |
